Patent publication US6855353B2, “Method for producing antioxidant and prevention of cancer” (priority 2002, dated 2005)

Legend:
[1] = test system: p53 gene in gastric cancer cells; test: Effect of RES on p53 allelic loss (PCR-SSCP); format: cell-based
Procedure: (§1) The gastric cancer cells and normal cells were cultured in RPMI 1640 medium supplement with 10% fetal bovine serum. All the exons of the p^53 gene were amplified by the polymease chain reaction (PCR) using specific oligonucleotide primers. The PCR products were subjected to single-strand conformation polymorphism (SSCP) analysis.

[2] = test system: SOD; test: Effect of RES on super-oxidation during reperfusion of ischemia heart: SOD; parameters: species or system rats
Procedure: (§2) H2O2 in the body is cleared by catalase and glutathione peroxidase (GSH-Px) catalysis. In myocardium, catalase activity of GSH-Px was lower.
(§3) In the present study we examined the effect of RES on super-oxidation during reperfusion of ischemia heart.
(§4) Male rats (280 to 320 g body weight) of Spague-Dawley strain maintained on a standard diet were used in these experiments. The rats were lightly anesthetized with diethyl ether, the left femoral vein was exposed and heparin (200 IU) was administered intravenously. 1 minute after administration of heparin the heart was excised and placed in ice cool perfusion medium until contraction had ceased. The heart was then mounted on the perfusion apparatus.
(§5) Langendorff perfusion for an initial 10 min. period, the perfusion was continued as a working preparation for an additional 30 min. The hearts were all electrically paced at between 265 and 275 beats/min during working perfusion.
(§6) The perfusate was Krebs-Henseleit bicarbonate buffer gassed with 95% oxygen and 5% carbon dioxide. This perfusate contained 11 mM D-glucose during the Langendorff perfusion.
(§7) Aortic pressure, heart rates, coronary flows and aortic outputs were monitored during perfusion. […] The perfusate of control group contained buffer only. At the end the frozen hears were store in liquid nitrogen until assayed for metabolic intermediates. […]

[3] = test system: c-myb RNA; test: Inhibition of oncogene expression in ML-1 cells (northern blot): c-myb; format: cell-based, Human
Procedure: (§8) Human myeloblastic leukemic cell (ML-1) had been described previously. Cells were maintained in suspension culture in RPMI 1640 medium supplemented with 7.5% heat-inactivated FBS. Cells growth and viability were assayed by hemocytometer using trypan blue dye exclusion.
(§9) RNA was isolated by the CsCl gradient modification. RNA pellets were washed twice by reprecipitation in ethanol and quantitated by absorbency at […]. RNA analyzed by electrophoresis of 15 μg of RNA through 1.2% agarose formaldehyde gels followed by northern blot transfer to nitrocellulose.
(§10) Single-standard uniformly labeled DNA probes were prepared. Probe of c-myc was a 1.7 Kb cla-Eco RI restriction fragment containing the 3′exon region of human c-myc and probe of c-myb was 1.0 Kb myb-specific Bam HI fragment. Probes for n-ras contained DNA fragments using a modification of the PCR technique. Probes for myb, myc and n-ras were isolated by electrolution. The isolated fragments were labeled to high specific activity with [α^32P]-dCTP (3000 ci/mmol). Prehybridization of the filter was performed. The hybridization mixer contained 50,000 cpm of probe. The probes were hybridized at 58° C. in 15 mM NaCl, […] sodium citrate for 3 hours. After hybridization, they were exposed to XAR-5 film. Oncogene expression was quantitated by densitometer scanning of the autoradiography.

[4] = test system: c-myc RNA; test: Inhibition of oncogene expression in ML-1 cells (northern blot): c-myc; format: cell-based, Human
Procedure: as §8, §9, §10

[5] = test system: bovine aortic smooth muscle cell modified LDL; test: Effect of RES on lower density lipoprotein oxidation (MDA); format: cell-based; details: LDL + 100 μg RES/ml, 37° C., 24 h; x ± s
[6] = test system: Cytochrome P-450; test: Effect of RES on hepatic microsomal monooxygenases: cytochrome P-450; format: in vivo; details: rat liver microsomes
Procedure: (§11) In the present study, the effect of RES on the activities of hepatic microsomal monooxygenases was examined.
(§12) Microsomal preparations—the microsomes used were prepared from rat's liver. The liver was thoroughly perfused in situ with more than 200 ml of 0.9% NaCl solution. The liver was excised, and homogenized with 4 volumes of isotonic (1.15%) KCl solution in a Potter glass homogenizer. The homogenate was centrifuged at 12,000×g for 25 minutes in a refrigerated centrifuge, and the precipitate was discarded. The microsomes were sedimented by centrifugation at 78,000×g for 90 minutes in a Hitachi model 40P preparative ultracentrifuge. The firmly packed pellet of microsomes was resuspended in isotonic KCl solution with the Potter homogenizer and again centrifuged as above. The washed microsomes were finally suspended in isotonic KCl, usually at a concentration of 10 mg of protein per ml. The resultant microsomal suspensions were stored at 4° C. and used within 2 to 3 days. In these preparations isotonic KCl was employed, instead of the more usual 0.25 M sucrose, so as to minimize the adsorption of hemoglobin on microsomes.
(§13) Cytochrome P-450, NADPH-cytochrome creductase, aminoyrine demethylase and benzpyrene hydroxylase determined as previously described. Other methods are as same as above section.

[7] = test system: mouse epidermis; test: Rate of [3H] thymidine incorporation in normal and TPA-stimulated mouse epidermis; format: in vivo
Procedure: It is known that tetradecanoyphorbol-13-acetate (TPA) is strong tumor promoter and TPA can remarkable increase [^3H] thymidine incorporation in mouse epidermis and then to induce Epidermis cancer.
Mice were treated with TPA and the rate of [^3H] thymidine incorporation was determined 20 hours later. Male mice (7-9 weeks old) used for experiments. Only mice showing no hair regrowth following shaving were used. Animals were injected intraperitoneally (i.p.) with TPA or […]. After 20 hours, mice were injected i.p. with 60 μCi of [^3H] thymidine (2 Ci/mmol) 20 minutes before sacrifice. Epidermal scrapings were prepared. Homogenized in distilled water at 4° C., and the macromolecules precipitated with 0.4 N trichloracetic acid (TCA). Following 6 washes with 0.2 N TCA at 4° C. and 2 washes with absolute ethanol at room temperature, the nucleic acids were hydrolyzed with 0.5 N TCA at 90° C. for 5 minutes. The hydrolysates (0.2 ml aliquots) were counted in a scintillation counter and assayed for DNA. Each value is the mean±range for three separately treated mice. Each counted aliquot (0.2 ml) contained approximately 10 μg of DNA.

[8] = test system: Lipoperoxides; test: Effect of RES on peroxidation (hepatic lipoperoxide content, CCl4-induced hepatic damage); format: in vivo
Procedure: The experiments were performed as previously described. Hepatic lipoperoxide content was determined as described by Uchiyama.
In the present study, the effect of RES on lipoperoxides was examined.
It is known that the pathogenesis of CCl4—induced hepatic damage involved reactive oxidant species increasing from the metabolism. The liver injure caused by CCl4 is due to the formation of a reactive toxic metabolite by the hepatic cytochrome P-450 system.

[9] = test system: GSH-Px; test: Effect of RES on super-oxidation during reperfusion of ischemia heart: GSH-Px; parameters: species or system rats
Procedure: as §2, §3, §4, §5, §6, §7

[10] = test system: NNK-induced lung tumorigenesis; test: NNK-induced lung tumorigenesis; format: in vivo, mice; details: RES by injection 20 mg/kg daily; 10 μmol NNK i.p.; pulmonary adenomas counted after sixteen weeks
Procedure: The capacity of tobacco-specific nitrosamine 4-(methylnitrosamino)-1-(3-pyridyl)-1-butanone (NNK) to induce tumor incidence was recognized several years ago. Every group had 20 mice. For treatment group, each mouse was gave RES by injection at dose of 20 mg/kg daily. For control group, each mouse was gave same volume of physiological saline. Three days later, mice were gave 10 μmol NNK (in 0.1 ml saline) by i.p. injection. Sixteen weeks after these treatments the mice were killed and pulmonary adenomas were counted. The statistical significance of bioassay data was determined by student's test.

[11] = test system: 17p in gastric cancer cells; test: Effect of RES on 17p allelic loss (PCR-SSCP); format: cell-based
Procedure: as §1

[12] = test system: Aminopyrine demethylase; test: Effect of RES on hepatic microsomal monooxygenases: aminopyrine demethylase; format: in vivo; details: rat liver microsomes
Procedure: as §11, §12, §13

[13] = test system: n-ras RNA; test: Inhibition of oncogene expression in ML-1 cells (northern blot): n-ras; format: cell-based, Human
Procedure: as §8, §9, §10

[14] = test system: NADPH-cytochrome Creductase; test: Effect of RES on hepatic microsomal monooxygenases: NADPH-cytochrome c reductase; format: in vivo; details: rat liver microsomes
Procedure: as §11, §12, §13

[15] = test system: Benzpyrene hydroxylase; test: Effect of RES on hepatic microsomal monooxygenases: benzpyrene hydroxylase; format: in vivo; details: rat liver microsomes
Procedure: as §11, §12, §13

[16] = test system: GSH-Px; test: Effect of RES on GSH-Px activity in tissues after 30 days feeding; format: in vivo; details: 0.2% RES solution as drinking water up to 30 days
From the text: Glutathion peroxidase (GSH-Px) is an important enzyme, which has a high activity in cancer tissues.
Twenty animals were divided into two groups of ten each and fed with either normal drinking water (control group) or 0.2% of RES solution (experimental group); this defined feeding regimen was continued up to 30 days. At the end of the feeding regimen, the animals were sacrificed, and whole skin, small bowel, liver, and lung were removed and immediately placed in ice-cold 0.1 M phosphate buffer, pH 7.4. Tissues were cleaned properly, minced and homogenized in the same buffer, and a 100,000×g supernatant fraction was prepared as described earlier. GSH-Px and GSH-r activities were measured.

[17] = gastric cancer cells treated by RES
[18] = gastric cancer cells treated by RES vs no drug
[19] = ischemia heart, perfusate with 0.05 mg of RES/ml
[20] = pre-perfusion with 4×10^−6 g of RES/ml

## Oc1ccc(/C=C/c2cc(O)cc(O)c2)cc1 [RES, resveratol]
[1]; [17]
  Frequency of p53 allelic loss: 12%
[1]; [18]
  Inhibition T/C (p53 allelic loss): 36%
[2]; [19]
  SOD activity: 10.5 ± 1.2 μg/protein
[2]; [20]
  SOD activity versus control group: significantly higher
[3]
  Inhibition (%) c-myb RNA: 25.6 ± 3.5%
[4]
  Inhibition (%) c-myc RNA: 30.1 ± 4.2%
[5]
  MDA: 2.75 ± 0.29 nmol/mg protein
[6]
  Cytochrome P-450: 2.65 ± 0.35 nmol/mg protein
[7]; TPA-stimulated mouse epidermis, 20 hours after TPA
  Specific activity, [3H] thymidine incorporation, TPA: 33.0 ± 4.5 cpm/μg DNA
[7]; normal mouse epidermis
  Specific activity, [3H] thymidine incorporation, Normal: 32.2 ± 4.0 cpm/μg DNA
[8]; 1h
  Lipoperoxides T/C, 1h: 87%
[8]; 1 h, CCl4-induced hepatic damage
  Lipoperoxides, 1 h: 0.65 ± 0.07 mmol MDA/g liver protein
[8]; 3h
  Lipoperoxides T/C, 3h: 72%
[8]; 3 h, CCl4-induced hepatic damage
  Lipoperoxides, 3 h: 0.62 ± 0.069 mmol MDA/g liver protein
[8]; 6h
  Lipoperoxides T/C, 6h: 55%
[8]; 6 h, CCl4-induced hepatic damage
  Lipoperoxides, 6 h: 0.60 ± 0.70 mmol MDA/g liver protein
[8]; 12h
  Lipoperoxides T/C, 12h: 40%
[8]; 12 h, CCl4-induced hepatic damage
  Lipoperoxides, 12 h: 0.59 ± 0.60 mmol MDA/g liver protein
[8]; 24h
  Lipoperoxides T/C, 24h: 22%
[8]; 24 h, CCl4-induced hepatic damage
  Lipoperoxides, 24 h: 0.58 ± 0.58 mmol MDA/g liver protein
[9]; [19]
  GSH-Px: 18.9 ± 2.0 μ/g.w
[9]; [20]
  GSH-Px activity versus control group: significantly higher
[10]
  Tumor incidence: 28.5 ± 3.0%
[11]; [17]
  Frequency of 17p allelic loss: 18.8%
[11]; [18]
  Inhibition T/C (17p allelic loss): 49%
[12]
  Aminopyrine demethylase: 170.0 ± 18 nmol HCHO/mg protein
[13]
  Inhibition (%) n-ras RNA: 35.7 ± 3.8%
[14]
  NADPH-cytochrome Creductase: 198.5 ± 20 nmol/mg protein
[15]
  Benzpyrene hydroxylase: 48.9 ± 5.8 nmol/mg protein
[16]; liver
  GSH-Px activity, Liver: 34 ± 50 n mol NADPH oxidized/mg protein/min
[16]; lung
  GSH-Px activity, Lung: 22 ± 3.5 n mol NADPH oxidized/mg protein/min
[16]; skin
  GSH-Px activity, Skin: 260 ± 30 n mol NADPH oxidized/mg protein/min
